Measured values taken from PubChem BioAssay AID179 (DTP/NCI, 2004).
Active and inactive are the calls of the source.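 The calls were made as follows: active = compounds giving half or more protection of infected cells from virus-caused growth loss, again on retest; inactive = the rest.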 Where a SMILES comes first, the peptide text is derived from it. The star is where a group is joined. Boc = CC(C)(C)OC(=O)*; Bn = c1ccc(C*)cc1

System: CEM cells HIV-1 protection, formazan growth assay
Assay: NCI AIDS Antiviral Assay
Details: for IC50: measured here: growth of uninfected CEM cells
Method in brief: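 Steps: treat uninfected and HIV-1-infected human CEM cells at five drug levels; quantify growth by soluble formazan; retest any compound reaching 50% protection; classify actives from the retest.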

| SMILES | EC50 | IC50 | outcome |
| --- | --- | --- | --- |
| CCCCCC=C(c1cc(F)c(OC)c(C(=O)OC)c1)c1cc(F)c(OC)c(C(=O)OC)c1 | > 200 µM | 115 µM | – |
| COC(=O)CNC(=O)CSc1nnc(COc2ccc(Cl)cc2)n1-c1ccccc1 | > 200 µM | 60.3 µM | – |
| CCCCCCCCCCCC1=C(NCCN)C(=O)C=C(NCCN)C1=O | > 2 µM | > 2 µM | – |
| COc1ccc(/C(O)=C/c2nc3ccccc3n2C)cc1 | > 178 µM | 74.1 µM | – |
| CC(=O)/C(=C/c1ccc(C#N)cc1)C(=O)c1ccccc1 | > 95.5 µM | 16.6 µM | – |
| CCCCN(CCCC)CN1C(=O)/C(=C/c2ccc(NC(C)=O)cc2)NC1=S | > 200 µM | > 200 µM | – |
| C/C(=N\NC(N)=O)C(CN1CCOCC1)C(c1ccccc1)c1c(O)c2ccccc2oc1=O (stereo not drawn) | > 81.3 µM | 67.6 µM | – |
| NC(N)=N/N=C/C(Cl)(Cl)Cl | > 200 µM | > 200 µM | – |
| CCN(CC)Cc1cc(Nc2ccnc3ccc4nn(C)nc4c23)ccc1O | > 603 µM | 15.8 µM | – |
| O=c1[nH]c2cc([N+](=O)[O-])ccc2nc1/C(=N/Nc1ccccc1)C(O)c1ccc(C(O)/C(=N\Nc2ccccc2)c2cnc3cc([N+](=O)[O-])ccc3n2)cc1 (stereo not drawn) | > 49 µM | 17 µM | – |
| CCCCCCCCCCCCCCCCCCOCC(C[N+]1(C)CCC(O)CC1)OCC (stereo not drawn) | > 0.912 µM | > 0.912 µM | – |
| O=C1N2CCN=C2c2ccccc2C1(O)c1ccccc1 (stereo not drawn) | > 200 µM | > 200 µM | – |
| O=c1c2cc(-c3ccccc3)cnc2sn1-c1ccc([N+](=O)[O-])cc1 | > 200 µM | 39.8 µM | – |
| COC(=O)C(CC(C)C)NC(=O)C(C)NC(=O)C(Cc1ccc(OCc2ccccc2)cc1)NC(=O)C(COCc1ccccc1)NC(=O)OC(C)(C)C (stereo not drawn) (Boc-S(Bn)Y(Bn)AL-OMe; configuration not given here) | > 200 µM | 83.2 µM | – |
| CCOC(=O)/C(=C\c1cccc(F)c1)[Se]c1ccccc1 | > 38.9 µM | > 38.9 µM | – |
| O=C1/C(=C/c2cccc3ccccc23)CCc2ccc([N+](=O)[O-])cc21 | > 200 µM | 47.9 µM | – |
| CC1=C(C(=O)Nc2cccc(C(F)(F)F)c2)C(c2ccc(O)cc2)C(C(=O)Nc2cccc(C(F)(F)F)c2)=C(C)N1 | > 32.4 µM | > 32.4 µM | – |
| Nc1nn2cc3c(nc2c1N=Nc1ccc(Cl)cc1)CCCCC3 | > 151 µM | > 151 µM | – |
| CCn1c(N)c(N=O)c(=O)n(C)c1=O | > 200 µM | > 200 µM | – |
| CCC/C(=N/OC(=O)N(C)C)c1ccccc1 | > 200 µM | 135 µM | – |
| CCOC(=O)/C(=C\c1ccccc1Cl)P(=O)(OCC)OCC | > 20.9 µM | 11.7 µM | – |

| SMILES | EC50 | IC50 | outcome |
| --- | --- | --- | --- |
| CCCCNC(=S)/C(C#N)=C1\Nc2ccccc2O1 | > 200 µM | 32.4 µM | – |
| O=C(CC(=O)N1N=C(n2ccc3ccccc32)CC1c1ccccc1)Nc1ccccc1Cl (stereo not drawn) | > 8.32 µM | > 8.32 µM | – |
| CCOC(=O)C1Cc2cc(C)c(C)cc2N(C)C1=O (stereo not drawn) | > 200 µM | > 200 µM | – |
| COC(C/C(=C/CO[Si](C(C)C)(C(C)C)C(C)C)C(=O)N(C(=O)OC(C)(C)C)c1ccccc1I)OC | > 200 µM | 77.6 µM | – |
| CCOC(=O)C1C(NC(N)=O)N(Cc2ccccc2)C(=O)N1Cc1ccccc1 (stereo not drawn) | > 447 µM | > 447 µM | – |
| COc1ccc2nc3cc([N+](=O)[O-])ccc3c(NCCO)c2c1 | > 200 µM | 1.05 µM | – |
| COC(=O)CN1C(=O)c2cccc3cc([N+](=O)[O-])cc(c23)C1=O | > 200 µM | 21.9 µM | – |
| c1cc2c(s1)CCC/C2=N\N=C1/CCCc2sccc21 | – | – | inactive |
| CC[N+](C)(C)Cc1ccccc1Br | > 200 µM | 182 µM | – |
| CC1=NN(C(=O)c2ccccc2Br)C(=O)C1N=Nc1ccccc1C(=O)O (stereo not drawn) | – | – | inactive |
| COc1ccc(C2C3=C(COC3=O)OC(C)(C)Oc3cc4c(cc32)OCO4)cc1OC (stereo not drawn) | > 200 µM | 12.3 µM | – |
| C=C1C(=O)OC2/C=C(\COC(C)=O)CCC(OC(C)=O)C3=CC(OC3=O)C12 (stereo not drawn) | > 36.3 µM | 7.24 µM | – |
| CC(=O)OCCCCN1C(=O)CSc2ccccc21 | > 200 µM | > 200 µM | – |
| NC(CS)=NCC1C2CC3CC(C2)CC1C3 (stereo not drawn) | > 200 µM | 33.1 µM | – |
| O=C(/C=C/c1ccc(O)c(O)c1)O[C@H]1CCCC[C@@H]1OC(=O)/C=C/c1ccc(O)c(O)c1 | > 100 µM | 5.75 µM | – |
| CC(=O)/C(=C/N1CC(=O)NC1=S)C(=O)Nc1ccc([N+](=O)[O-])cc1 | > 200 µM | 155 µM | – |
| CCC12C=CCN3CC[C@@]4(c5cc([C@@]6(C(=O)OC)CC7CN(CCc8c6[nH]c6ccccc86)C[C@](O)(CC)C7)c(OC)cc5N(C)[C@H]4[C@]4(OCOC4=O)[C@@H]1O)C32 (stereo partly drawn) | – | – | inactive |
| Cc1cc(N=Nc2ccc(C(=O)O)cc2)c(N)c(N=Nc2ccc(N=Nc3ccc(O)c(C(=O)O)c3)cc2)c1N | 38 µM | 195 µM | – |
| O=[N+]([O-])c1ccc(O)c(C=NCC2CCCN3CCCCC23)c1 (stereo not drawn) | > 200 µM | 39.8 µM | – |
| CC1OC23CCCCC2C(C#N)(C#N)C1(C#N)C(=N)O3 (stereo not drawn) | > 200 µM | 4.27 µM | – |
| O=C(OCc1ccccc1)C(Cc1ccccc1)N(Cc1ccccc1)Cc1ccccc1 (stereo not drawn) | > 200 µM | > 200 µM | – |

| SMILES | EC50 | IC50 | outcome |
| --- | --- | --- | --- |
| Cc1cc(=O)oc2c3c(ccc12)OC(C)(C)[C@H](OC(=O)C12CCC(C)(C(=O)O1)C2(C)C)[C@@H]3OC(=O)C12CCC(C)(C(=O)O1)C2(C)C (stereo partly drawn) | 0.0759 µM | > 200 µM | – |
| CC(=O)Nc1ccc2[nH]c(C(=O)N3CC(CCl)c4c3cc(N)c3ccccc43)cc2c1 (stereo not drawn) | > 0.2 µM | 0.00933 µM | – |
| O=C(O)/C(Cl)=C(\Cl)C(=O)c1ccccc1 | > 1020 µM | > 1020 µM | – |
| COc1ccccc1Cn1[nH]c(=O)c2cc([N+](=O)[O-])ccc21 | > 200 µM | 63.1 µM | – |
| CN1C(CC(O)c2ccccc2)CCCC1CC(O)c1ccccc1 (stereo not drawn) | > 200 µM | > 200 µM | – |
| COc1cc2c(cc1O)C1CC(CC3CCCCN31)OC(=O)/C=C\c1ccc(O)c-2c1 (stereo not drawn) | > 200 µM | 45.7 µM | – |
| CC(=O)Oc1c(C(C)C)cc2c(c1OC(C)=O)CC1(C)OC(=O)CC(C)(C)C1=CC2 (stereo not drawn) | – | – | inactive |
| NC1CCC(C(=O)C2CCC(O)CC2O)CC1 (stereo not drawn) | > 200 µM | 18.2 µM | – |
| N#CC(NNC(=O)Cc1ccccc1)c1c(O)ccc2ccccc12 (stereo not drawn) | > 56.2 µM | 3.89 µM | – |
| CCCC1N2CCCCC2[C@@H]2c3[nH]c4ccccc4c3CCN12 (stereo partly drawn) | > 427 µM | > 427 µM | – |
| O=C(O)c1ccc(C(=O)O)c(C(=O)c2cc(C(=O)O)ccc2C(=O)O)c1 | > 162 µM | 61.7 µM | – |
| CC(C)c1cc2c(cc1S(=O)(=O)O)[C@@]1(C)CCC[C@@](C)(C(=O)O)C1CC2 (stereo partly drawn) | > 200 µM | > 200 µM | – |
| CCCCCCCCCCCCOP(=O)(O)OCC(N)C(=O)O (stereo not drawn) | > 200 µM | 10.2 µM | – |
| CC1(CO)OC(n2cnc3cncnc32)CC1O (stereo not drawn) | 18.2 µM | > 200 µM | – |
| CC(C)Cn1c(N)c(N=O)c(=O)n(C)c1=O | > 200 µM | > 200 µM | – |
| CCN1CC2(C)CCC(OC)C34C5CC6CCC(O)(C5C(=O)O6)C(C(O)C23)C14 (stereo not drawn) | – | – | inactive |
| CN(C)c1nc(N(C)C)sc(=O)n1 | – | – | inactive |
| COc1cc2c(cc1O)[C@H]1COc3ccccc3[C@H]1O2 | > 93.3 µM | 4.9 µM | – |
| COC(=O)c1cc(Cl)ccc1NC(=O)c1ccc([N+](=O)[O-])cc1 | – | – | inactive |
| CCCc1cc(=O)oc2c3c(c4c(c12)OC(C)(C)[C@@H](OC(=O)c1ccc(Br)cc1)[C@H]4OC(=O)c1ccc(Br)cc1)O[C@@H](C)[C@H](C)[C@@H]3OC(=O)c1ccc(Br)cc1 | > 200 µM | > 200 µM | – |
| OC12c3ccccc3C1CCCCCC21OCCCO1 (stereo not drawn) | > 200 µM | > 200 µM | – |

| SMILES | EC50 | IC50 | outcome |
| --- | --- | --- | --- |
| O=c1oc(-c2cccc(-c3nc4c(c(=O)o3)CCS4)c2)nc2c1CCS2 | > 200 µM | – | – |
| CCOC(=O)CSc1nc(-c2ccc(OC)cc2)c(C#N)c(=O)[nH]1 | > 200 µM | 97.7 µM | – |
| N#CCN(CC#N)C1CC=CCC1N(CC#N)CC#N (stereo not drawn) | > 200 µM | 102 µM | – |
| c1ccc(SCc2ccc3c(c2)OCO3)cc1 | > 77.6 µM | > 77.6 µM | – |
| COc1ccc(C2SCC(=O)N2N=C2NC(=O)CC(=O)N2)cc1 (stereo not drawn) | > 200 µM | > 200 µM | – |
| Cc1ccc(O)c(N=O)c1.[Cu+2] | > 200 µM | 2.63 µM | – |
| CN1CCN(C(=S)N(C)C(=O)c2ccco2)CC1 | > 933 µM | > 933 µM | – |
| Nc1nc(N)c2c(n1)C(=O)N(Cc1ccccc1)C2 | – | – | inactive |
| Clc1cccc(C2N3CCCCC3[C@@H]3c4[nH]c5ccccc5c4CCN23)c1 (stereo partly drawn) | > 13.8 µM | > 13.8 µM | – |
| CCCCCCCC/C=C\CCCCCCCCOP(=O)(O)OCCC=C(c1cc(Cl)c(O)c(C(=O)O)c1)c1cc(Cl)c(O)c(C(=O)O)c1 | > 77.6 µM | 69.2 µM | – |
| COc1ccc(-c2c(C(C)=O)c(-c3ccccc3)n(C3OC(COC(C)=O)C(OC(C)=O)C(OC(C)=O)C3OC(C)=O)c(=S)c2C#N)cc1 (stereo not drawn) | > 200 µM | 123 µM | – |
| CCC(=O)c1c(NOC2OC(COC(C)=O)C(OC(C)=O)C(OC(C)=O)C2OC(C)=O)nc(OC)n(C)c1=O (stereo not drawn) | > 46.8 µM | > 46.8 µM | – |
| O=C(O)c1ccccc1-c1c2ccc(=Nc3ccccc3)cc-2oc2cc(Nc3ccc(S(=O)(=O)O)cc3)ccc12 | 14.1 µM | > 200 µM | – |
| CN(C)CCC(/C=C/c1ccccc1)=N\Nc1ccc(Cl)c(Cl)c1 | – | – | inactive |
| O=P(c1ccccc1)(c1ccccc1)C1CC=C(c2ccccc2)C2(CCCC2)C1 (stereo not drawn) | > 8.71 µM | > 8.71 µM | – |
| CC(C)CC(NC(=O)OCC[P+](c1ccccc1)(c1ccccc1)c1ccccc1)C(=O)O (stereo not drawn) | > 200 µM | 9.12 µM | – |
| Cc1nc2c(s/c(=N\N)n2-c2ccccc2)c(=O)n1C | > 13.2 µM | > 13.2 µM | – |
| COCn1c(C(=O)c2ccccc2)c(C)c(=O)[nH]c1=O | 70.8 µM | > 200 µM | – |
| COC1CCN(N(C)C)O1 (stereo not drawn) | > 200 µM | > 200 µM | – |
| CCCCNCCCC.[C-]#[O+].[C-]#[O+].[C-]#[O+].[C-]#[O+].[C-]#[O+].[Cr] | > 200 µM | 56.2 µM | – |
| O=C(CSc1nc(-c2ccccc2)c(-c2ccccc2)[nH]1)N/N=C/c1ccc(Cl)cc1 | > 20.9 µM | 12 µM | – |
